Measured values taken from patent publication US6608003B2, “Herbicidal solutions comprising fatty acid ammonium salts and dicarboxylic acid diesters and methods of using the same” (Falcon Lab LLC, priority 2000, dated 2003).

Legend:
[1] = Solubility in water; type: physicochemical
[2] = Solubility of the diester in 40% aqueous ammonium pelargonate solution; type: physicochemical; details: for amount of ester that dissolves in 100 g of 40% ammonium pelargonate to give a clear composition: 22 deg, successive additions of 99% ester; for dissolved diester content of the clear aqueous ammonium pelargonate composition: by weight, 40% (saturated) ammonium pelargonate solution
Method: A 40% solution of ammonium pelargonate was prepared by slowly adding 33 g. of 28% ammonium hydroxide to a stirred mixture of 89.3 g. of nonanoic acid (commercial pelargonic acid from Cognis Corp.) and 124.3 g. of distilled water.
To 361 gm. (2.29 mole) of technical pelargonic acid was added slowly with stirring a solution of 139 gm. of 28% ammonium hydroxide (2.29 mole NH3) in 500 ml. of deionized water.
A 40% solution of ammonium pelargonate was prepared by slowly adding 33 g. of 28% ammonium hydroxide to a stirred mixture of 89.3 g. of nonanoic acid (commercial pelargonic acid from Cognis Corp.) and 124.3 g. of distilled water. […]

solubility in water (in words) [1]	amount of ester that dissolves in 100 g of 40% ammonium pelargonate to give a clear composition [2] [g]	dissolved diester content of the clear aqueous ammonium pelargonate composition [2] [%]	SMILES
insoluble in water	22.5	17.9	COC(=O)CCCCCC(=O)OC [dimethyl pimelate, Dimethyl pimelate]
insoluble in water	19.3	16.2	COC(=O)CCCCCCC(=O)OC [dimethyl suberate, Dimethyl suberate]
